Values after ≈ are worked out from the molar mass of the structure shown.
Experiments:
[1] = Kinetic solubility in FaSSIF at pH 6.5; assay type: physicochemical; conditions: for solubility kinetic: FaSSIF, read-out: Kinetic_solubility
[2] = tested on: Rattus norvegicus; test: (§1) Half life in Wistar Han rat at 0.5 mg/kg, iv LC-MS/MS method; assay type: ADME, organism-based; conditions: in vivo
[3] = Lipophilicity, logD of the compound at pH 7 by HPLC method; assay type: physicochemical; conditions: buffer
[4] = target: T1, Glucose-dependent insulinotropic receptor (Mus musculus, UniProt Q7TQP3); test: Agonist activity at mouse GPR119 by cAMP assay; assay type: functional
T1 sequence (Q7TQP3 whole entry): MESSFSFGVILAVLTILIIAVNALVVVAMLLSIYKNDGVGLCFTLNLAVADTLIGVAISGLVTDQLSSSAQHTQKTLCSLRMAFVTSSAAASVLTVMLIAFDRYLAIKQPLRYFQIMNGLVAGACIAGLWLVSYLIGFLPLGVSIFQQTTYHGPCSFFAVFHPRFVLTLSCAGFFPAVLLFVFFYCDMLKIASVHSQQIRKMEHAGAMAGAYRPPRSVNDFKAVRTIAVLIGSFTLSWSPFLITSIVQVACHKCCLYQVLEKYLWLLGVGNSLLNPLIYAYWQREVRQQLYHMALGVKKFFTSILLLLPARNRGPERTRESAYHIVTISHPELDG

[5] = target: T2, Glucose-dependent insulinotropic receptor (Homo sapiens, UniProt Q8TDV5); test: Agonist activity at human GPR119 expressed in CHO cells by cAMP assay; assay type: functional, cell-based
T2 sequence (Q8TDV5 whole entry): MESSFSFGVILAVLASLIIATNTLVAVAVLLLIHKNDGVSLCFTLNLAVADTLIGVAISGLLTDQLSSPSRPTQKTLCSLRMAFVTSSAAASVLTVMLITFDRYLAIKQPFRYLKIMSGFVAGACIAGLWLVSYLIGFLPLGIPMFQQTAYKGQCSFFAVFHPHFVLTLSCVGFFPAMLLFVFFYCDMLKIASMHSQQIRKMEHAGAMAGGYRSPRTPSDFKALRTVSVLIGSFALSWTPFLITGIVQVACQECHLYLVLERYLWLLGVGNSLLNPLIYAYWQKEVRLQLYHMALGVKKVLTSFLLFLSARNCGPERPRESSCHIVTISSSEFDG

[6] = as §1; assay type: ADME, organism-based; conditions: Wistar Han, in vivo
[7] = target: T3, Glucose-dependent insulinotropic receptor (Homo sapiens) (UniProt Q8TDV5); test: Agonist activity at human GPR119 by cAMP assay relative to control; assay type: functional; design: concentration or dose not given beside the values
T3 sequence (whole entry): T2 sequence (Q8TDV5 whole entry)

[8] = target: T4, Glucose-dependent insulinotropic receptor (Mus musculus) (UniProt Q7TQP3); test: Agonist activity at mouse GPR119 by cAMP assay relative to control; assay type: functional; design: concentration or dose not given beside the values
T4 sequence (whole entry): T1 sequence (Q7TQP3 whole entry)

[9] = Solubility in PEG400; assay type: physicochemical
[10] = Intrinsic clearance in rat liver microsomes; assay type: ADME; conditions: read-out: CLH
[11] = Intrinsic clearance in monkey liver microsomes; assay type: ADME, Macaca mulatta; conditions: rhesus monkey, read-out: CLH
[12] = Fraction unbound in rat plasma; assay type: ADME, cell-free
[13] = Solubility in PEG200; assay type: physicochemical
[14] = target: T5, Nuclear receptor subfamily 1 group I member 2 (Homo sapiens, UniProt O75469); test: Activation of human PXR relative to control; assay type: ADME
T5 sequence (O75469 whole entry): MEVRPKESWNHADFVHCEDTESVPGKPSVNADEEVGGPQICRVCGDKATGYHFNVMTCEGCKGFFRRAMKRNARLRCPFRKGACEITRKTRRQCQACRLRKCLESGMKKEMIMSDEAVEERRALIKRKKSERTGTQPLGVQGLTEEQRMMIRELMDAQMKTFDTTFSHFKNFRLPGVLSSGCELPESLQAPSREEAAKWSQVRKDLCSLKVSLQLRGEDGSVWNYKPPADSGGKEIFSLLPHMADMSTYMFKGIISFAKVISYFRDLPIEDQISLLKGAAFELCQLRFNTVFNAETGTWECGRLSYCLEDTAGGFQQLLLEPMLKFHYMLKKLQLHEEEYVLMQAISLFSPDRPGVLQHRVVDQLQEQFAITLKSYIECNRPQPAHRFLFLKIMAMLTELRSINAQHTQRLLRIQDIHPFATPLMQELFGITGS

[15] = Plasma clearance in Wistar Han rat at 0.5 mg/kg, iv LC-MS/MS method; assay type: ADME, organism-based
[16] = Drug level in mouse blood at 1 mg/kg after 90 mins; assay type: ADME, organism-based; conditions: whole blood, read-out: Drug uptake
[17] = Fraction unbound in rhesus monkey plasma; assay type: ADME, cell-free, Macaca mulatta
[18] = target: T5, Nuclear receptor subfamily 1 group I member 2; test: Activation of human PXR; assay type: ADME
[19] = Half life in Beagle dog; assay type: ADME, organism-based, Canis lupus familiaris; conditions: in vivo
[20] = Half life in rhesus monkey; assay type: ADME, organism-based, Macaca mulatta; conditions: in vivo
[21] = tested on: Mus musculus; test: Reduction in blood glucose excursion in po dosed C57BL/6 Tac mouse by OGTT method; assay type: functional, organism-based
[22] = Plasma clearance in Beagle dog; assay type: ADME, organism-based, Canis lupus familiaris
[23] = Oral bioavailability in rhesus monkey; assay type: ADME, organism-based, Macaca mulatta; conditions: in vivo
[24] = Volume of distribution in Beagle dog; assay type: ADME, organism-based, Canis lupus familiaris; conditions: in vivo
[25] = Drug level in mouse blood at 3 mg/kg after 90 mins; assay type: ADME, organism-based; conditions: whole blood, read-out: Drug uptake
[26] = Oral bioavailability in Beagle dog; assay type: ADME, organism-based, Canis lupus familiaris; conditions: in vivo
[27] = species: Cavia porcellus; test: Toxicity in guinea pig assessed as effect on cardiovascular parameters at 64 times over target clinical exposure level; assay type: organism-based, Heart; conditions: in vivo
[28] = Intrinsic clearance in human liver microsomes; assay type: ADME; conditions: read-out: CLH
[29] = Solubility in FaSSIF; assay type: physicochemical; conditions: simulated gi fluid
[30] = Drug level in mouse blood at 0.3 mg/kg after 90 mins; assay type: ADME, organism-based; conditions: whole blood, read-out: Drug uptake
[31] = Oral bioavailability in Wistar Han rat; assay type: ADME, organism-based; conditions: in vivo
[32] = Intrinsic clearance in dog liver microsomes; assay type: ADME, Canis lupus familiaris; conditions: read-out: CLH
[33] = Fraction unbound in human plasma; assay type: ADME, cell-free
[34] = Plasma clearance in rhesus monkey; assay type: ADME, organism-based, Macaca mulatta
[35] = Fraction unbound in dog plasma; assay type: ADME, cell-free, Canis lupus familiaris
[36] = tested on: Mus musculus; test: Reduction in blood glucose excursion in po dosed C57BL/6 Tac mouse assessed as minimal dose for maximum efficacy by OGTT method; assay type: functional; conditions: read-out: MED
[37] = target: Cytochrome P450 3A4 (Homo sapiens, UniProt P08684); test: Inhibition of CYP3A4 (unknown origin)
[38] = (§2) Volume of distribution in Wistar Han rat at 0.5 mg/kg, iv LC-MS/MS method; assay type: ADME, organism-based; conditions: Wistar Han, in vivo
[39] = Solubility in SGF; assay type: physicochemical
[40] = Volume of distribution in rhesus monkey; assay type: ADME, organism-based, Macaca mulatta; conditions: in vivo
[41] = Drug level in mouse blood at 10 mg/kg after 90 mins; assay type: ADME, organism-based; conditions: whole blood, read-out: Drug uptake
[42] = tested on: Rattus norvegicus; test: Unbound volume of distribution in Wistar Han rat at 0.5 mg/kg, iv LC-MS/MS method; assay type: ADME, organism-based; conditions: in vivo
[43] = tested on: Rattus norvegicus; test: as §2; assay type: ADME, organism-based; conditions: in vivo

Cytochrome P450 3A4, sequence (P08684 whole entry): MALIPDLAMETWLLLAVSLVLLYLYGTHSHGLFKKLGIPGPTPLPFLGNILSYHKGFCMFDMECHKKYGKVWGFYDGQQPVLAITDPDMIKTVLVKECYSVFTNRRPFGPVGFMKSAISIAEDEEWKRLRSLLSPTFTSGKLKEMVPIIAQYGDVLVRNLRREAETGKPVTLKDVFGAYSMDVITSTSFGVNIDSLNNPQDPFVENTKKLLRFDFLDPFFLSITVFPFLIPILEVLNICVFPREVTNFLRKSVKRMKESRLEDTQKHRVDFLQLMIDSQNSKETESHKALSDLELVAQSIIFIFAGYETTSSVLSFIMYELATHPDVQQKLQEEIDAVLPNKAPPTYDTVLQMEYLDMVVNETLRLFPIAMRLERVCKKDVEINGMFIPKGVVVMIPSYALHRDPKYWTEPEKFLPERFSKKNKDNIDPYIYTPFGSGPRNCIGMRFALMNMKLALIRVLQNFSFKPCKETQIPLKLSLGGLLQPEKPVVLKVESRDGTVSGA

Work on COC(C)c1cnc(N2CCC([C@H]3C[C@H]3COCc3ccc(S(C)(=O)=O)cc3F)CC2)nc1 (stereo in doubt; 30) [listing 1 of 2 here] yielded a solubility kinetic [1] of 137 µM (≈ 65.4 µg/mL), a t1/2 [2] of 1 h and a logD [3] of 3.9. It also gave an EC50 [4] of 3.3 nM and an EC50 [5] of 4.6 nM.

COc1cnc(N2CCC([C@H]3C[C@H]3COCc3ccc(S(C)(=O)=O)cc3F)CC2)nc1 showed a solubility kinetic [1] of 151 µM (≈ 67.9 µg/mL), a half-life [6] of 0.6 h and a logD [3] of 4. For the same molecule, the Activity [7] was 79%, the Activity [8] was 85% and the EC50 [4] was 1.4 nM. For the same molecule, the EC50 [5] was 4.5 nM.

For COCc1cnc(N2CCC([C@H]3C[C@H]3COCc3ccc(S(C)(=O)=O)cc3F)CC2)nc1, the solubility [9] was 325000 µg/mL (≈ 701000 µM), the CLint scaled [10] was 1100 mL/min/kg and the CLint scaled [11] was 319 mL/min/kg. It also gave a fraction unbound [12] of 0.041, a solubility [13] of 129000 µg/mL (≈ 278000 µM) and an Activity [14] of 39%. The clearance [15] was 41 mL/min/kg, the solubility kinetic [1] was 161 µM (≈ 74.6 µg/mL) and the concentration at 1.5 h [16] was 86 nM. It also gave a fraction unbound [17] of 0.032, an EC50 [18] greater than 30000 nM and a half-life [6] of 1 h. For the same molecule, the half-life [19] was 17 h, the half-life [20] was 2.3 h and the Activity [21] was “Dose-dependent effect”. The clearance [22] was 6 mL/min/kg, the bioavailability [23] was 5% and the Vd [24] was 6.5 L/kg. It also gave a concentration at 1.5 h [25] of 302 nM, a logD [3] of 3.5 and a bioavailability [26] of 60%. The Activity [27] was “Non-toxic”, the CLint scaled [28] was 42 mL/min/kg and the solubility [29] was 56 µg/mL (≈ 121 µM). It also gave a concentration at 1.5 h [30] of 18 nM, a bioavailability [31] of 27% and an Activity [7] of 88%. The CLint scaled [32] was 60 mL/min/kg, the fraction unbound [33] was 0.049 and the clearance [34] was 16 mL/min/kg. The Activity [8] was 97%, the fraction unbound [35] was 0.055 and the minimal effective dose [36] was 3 mg/kg. It also gave an IC50 [37] of 40000 nM, a Vd [38] of 2.2 L/kg and an EC50 [4] of 1.9 nM. For the same molecule, the EC50 [5] was 2.1 nM, the solubility [39] was 870 µg/mL (≈ 1880 µM) and the Vd [40] was 2 L/kg. It also gave a concentration at 1.5 h [41] of 622 nM and a Vdu [42] of 54 L/kg.

CCOc1cnc(N2CCC([C@H]3C[C@H]3COCc3ccc(S(C)(=O)=O)c(F)c3)CC2)nc1 gave a solubility kinetic [1] of 101 µM (≈ 46.8 µg/mL), a half-life [6] of 0.8 h and a logD [3] of 4.2. For the same molecule, the Activity [7] was 75%, the Activity [8] was 96% and the EC50 [4] was 2.3 nM. For the same molecule, the EC50 [5] was 1.7 nM.

COC(C)c1cnc(N2CCC([C@H]3C[C@H]3COCc3ccc(S(C)(=O)=O)cc3F)CC2)nc1 (stereo in doubt; 30) [listing 2 of 2 here] showed an Activity [7] of 95% and an Activity [8] of 70%.

For COCc1cnc(N2CCC([C@H]3C[C@H]3COCc3cc(F)c(S(C)(=O)=O)c(F)c3)CC2)nc1, the solubility kinetic [1] was 115 µM (≈ 55.4 µg/mL), the half-life [6] was 0.5 h and the logD [3] was 3.6. For the same molecule, the Activity [7] was 80%, the Activity [8] was 67% and the EC50 [4] was 5.8 nM. For the same molecule, the EC50 [5] was 4.5 nM.

For COCc1cnc(N2CCC([C@H]3C[C@H]3COCc3ccc(-n4cnnn4)c(F)c3)CC2)nc1, the solubility kinetic [1] was 133 µM (≈ 60.3 µg/mL), the half-life [6] was 3 h and the logD [3] was 3.7. For the same molecule, the Activity [7] was 84%, the Activity [8] was 75% and the EC50 [4] was 3.8 nM. For the same molecule, the EC50 [5] was 1.1 nM.

With COC(C)c1cnc(N2CCC([C@H]3C[C@H]3COCc3ccc(S(C)(=O)=O)cc3F)CC2)nc1 (stereo in doubt; 29) the Kinetic_solubility ([1]; simulated gi fluid) was 143 µM, the half-life [6] was 1.4 h and the EC50 [4] was 8.9 nM. The EC50 [5] was 3.1 nM.

CS(=O)(=O)c1ccc(COC[C@@H]2C[C@@H]2C2CCN(c3ncc(F)cn3)CC2)cc1F showed a solubility kinetic [1] of 92 µM (≈ 40.3 µg/mL), a half-life [6] of 1.5 h and a logD [3] of 4.2. For the same molecule, the Activity [7] was 85%, the Activity [8] was 131% and the EC50 [4] was 4.5 nM. For the same molecule, the EC50 [5] was 2.4 nM.

With CCS(=O)(=O)c1ccc(OCC[C@@H]2C[C@@H]2C2CCN(c3nc(C(C)C)no3)CC2)c(F)c1 the CLint scaled [10] was 675 mL/min/kg, the fraction unbound [12] was 0.02 and the solubility kinetic [1] was 61 µM (≈ 28.4 µg/mL). The t1/2 [2] was 6.5 h, the logD [3] was 4.2 and the Activity [7] was 69%. It also gave a Vd [43] of 4.8 L/kg, an EC50 [5] of 1.7 nM and a Vdu [42] of 242 L/kg.

From ChEMBL document CHEMBL3621146, “Design of Potent and Orally Active GPR119 Agonists for the Treatment of Type II Diabetes” (ACS Med Chem Lett, 2015)
